Measurements reported in US11993786B2, “Methods and compositions for generating pacemaker cells” (TAIPEI VETERANS GENERAL HOSPITAL, priority 2017, dated 2024).

Columns and labels:
[1] = tested on: β-adrenergic receptor; assay: Sympathetic stimulation of beating rate with isoproterenol; type: cell-based, rat; conditions: 1 μM isoproterenol
Description: (§1) Seeded cardiomyocytes in Tyrode's solution were loaded with Ca^2+ indicators (10 μM Fluo-3/AM for cardiomyocytes; Calbiochem, San Diego, CA, USA) and incubated at room temperature for 30 minutes in the dark. Fluorescence imaging was performed with a laser scanning confocal microscope (Olympus IX71, Olympus America). The fluorescence density (F) was normalized against the baseline fluorescence (F0) to determine the transient [Ca^2+]i changes, which had excluded variations in the fluorescence intensity because of different volumes of injected dye. Offline analysis was performed using Olympus IX71 and ImageJ.
Isoproterenol is a non-selective β-adrenergic receptor agonist, which is used for pharmacological sympathetic stimulation to evaluate the physiological sympathetic regulation of sinus node. In this example, the functional regulations of autonomic neurotransmitters in SF-treated cardiomyocytes were investigated using the isoproterenol treatment (1 μM).

[2] = molecular target: T1, HCN4 (Rattus norvegicus, UniProt Q9JKA7); assay: Effect of HCN4 inhibitor on spontaneous beating rate (calcium transient cycling); type: cell-based; conditions: 3 μM ivabradine
T1 construct: endogenous in cells; host or cells: NRVMs (primary neonatal rat ventricular cardiomyocytes) on silk fibroin film or fibronectin control
T1 sequence (Q9JKA7 1-1198): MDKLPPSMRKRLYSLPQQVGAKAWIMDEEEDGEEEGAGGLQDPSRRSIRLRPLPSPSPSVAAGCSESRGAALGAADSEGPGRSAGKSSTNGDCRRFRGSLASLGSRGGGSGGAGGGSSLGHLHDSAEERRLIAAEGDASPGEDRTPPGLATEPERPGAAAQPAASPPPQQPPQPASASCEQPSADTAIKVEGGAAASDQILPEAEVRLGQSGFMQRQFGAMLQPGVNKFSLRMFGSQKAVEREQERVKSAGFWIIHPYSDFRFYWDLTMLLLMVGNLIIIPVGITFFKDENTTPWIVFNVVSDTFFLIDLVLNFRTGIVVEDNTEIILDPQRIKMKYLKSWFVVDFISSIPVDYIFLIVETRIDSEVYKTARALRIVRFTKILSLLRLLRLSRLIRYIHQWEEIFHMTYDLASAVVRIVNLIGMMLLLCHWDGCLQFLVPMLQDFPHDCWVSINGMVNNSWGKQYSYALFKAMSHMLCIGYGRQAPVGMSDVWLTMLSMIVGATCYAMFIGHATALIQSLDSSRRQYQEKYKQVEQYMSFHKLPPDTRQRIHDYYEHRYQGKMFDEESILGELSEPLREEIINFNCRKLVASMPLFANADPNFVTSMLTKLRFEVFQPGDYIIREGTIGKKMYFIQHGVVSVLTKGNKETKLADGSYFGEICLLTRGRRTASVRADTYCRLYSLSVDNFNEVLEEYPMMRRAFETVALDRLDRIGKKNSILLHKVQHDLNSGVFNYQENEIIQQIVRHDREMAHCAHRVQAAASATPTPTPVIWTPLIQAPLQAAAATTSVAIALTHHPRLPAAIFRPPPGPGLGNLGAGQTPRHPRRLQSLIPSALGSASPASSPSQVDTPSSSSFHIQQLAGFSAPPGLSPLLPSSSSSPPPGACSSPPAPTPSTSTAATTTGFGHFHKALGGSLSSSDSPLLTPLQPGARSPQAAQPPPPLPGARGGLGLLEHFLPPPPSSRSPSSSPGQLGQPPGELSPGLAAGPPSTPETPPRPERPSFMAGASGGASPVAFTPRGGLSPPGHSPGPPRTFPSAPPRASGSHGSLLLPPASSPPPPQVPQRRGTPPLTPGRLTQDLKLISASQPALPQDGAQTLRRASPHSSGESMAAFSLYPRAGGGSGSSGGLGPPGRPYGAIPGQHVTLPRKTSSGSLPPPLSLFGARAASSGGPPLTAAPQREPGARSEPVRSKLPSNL
Description: as §1
The spontaneous beating is tightly regulated by HCN4 channels in native SAN pacemakers. Therefore, in this example, cells from Example 1 were treated with 3 μM ivabradine, a selective HCN4 inhibitor, to evaluate the impact of HCN4 on the function of SF-treated cardiomyocytes.

SMILES | beating rate ([1]; SF-treated cardiomyocytes, n=10, P=0.001 vs control) [bpm] | increment of beating rate without vs with isoproterenol ([1]; SF-treated cells, n=10, P=0.02 vs control) [bpm] | beating rate ([1]; control cells) [bpm] | increment of beating rate without vs with isoproterenol ([1]; control cells) [bpm] | suppression of beating rate (cycling rate of spontaneous calcium transient) ([2]; SF-treated cardiomyocytes, vs baseline, n=15, P=0.002) [%] | beating rate vs baseline ([2]; control cells, n=32, P=0.24)
CC(C)NCC(O)c1ccc(O)c(O)c1 (stereo not drawn) [isoproterenol] | 162.4±9.6 | 87.1±12.4 | 87.6±14.7 | 49.2±8.3 |  | 
COc1cc2c(cc1OC)CC(=O)N(CCCN(C)C[C@H]1Cc3cc(OC)c(OC)cc31)CC2 [ivabradine] |  |  |  |  | 57 | did not differ significantly
